Results taken from patent publication US20230295152A1 (SENDA BIOSCIENCES, INC., priority 2019, published 2023).
Values after ≈ are worked out from the molar mass of the structure shown. Read-outs that look alike come from different tables or passages of the source.

What was measured:
[1] = Solubility Determination Assay in PBS pH 1.6 and pH 7.4; format: physicochemical; conditions: PBS buffer, aqueous buffer, kinetic from dmso stock
In short: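 Compounds from 10 mM DMSO stock diluted into PBS pH 1.6 or pH 7.4 (15 μL into 485 μL), stirred 2 hours, then filtered. Filtrate quantified by LC-MS/MS against a standard of known concentration with internal standard; single determination.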

[2] = Hepatocyte Stability Assay, human; format: in vitro ADME; conditions: cryopreserved hepatocytes in suspension; human hepatocytes; read-out: Human hepatocyte clearance
[3] = PBS pH 1.6, 25° C., read-out: Aq. Solubility at pH = 1.6
[4] = PBS pH 7.4, 25° C., read-out: Aq. Solubility at pH = 7.4

Structure (SMILES) | solubility at 2 h [1, 3] | solubility at 2 h [1, 4] | CLint scaled at 1 μM [2]
O=c1c2cc(-c3ccc(OC(F)(F)F)cc3)nc(-c3cccnc3)c2ncn1C[C@H](O)C(F)(F)F [Compound 124, (S)-8-(pyridin-3-yl)-3-(3,3,3-trifluoro-2-hydroxypropyl)-6-(4-(trifluoromethoxy)phenyl)pyrido[3,4-d]pyrimidin-4(3H)-one] | ≥ 1 µM | < 0.1 µM | < 20 mL/min/kg
Cn1cc(-c2nc(-c3ccc(C(F)(F)F)nc3)cc3c(=O)n([C@H]4COC[C@@H]4O)cnc23)cn1 [Compound 114, 3-((3S,4R)-4-hydroxytetrahydrofuran-3-yl)-8-(1-methyl-1H-pyrazol-4-yl)-6-(6-(trifluoromethyl)pyridin-3-yl)pyrido[3,4-d]pyrimidin-4(3H)-one] | 0.1 to 1 µM (≈ 0.0458 to 0.458 µg/mL) | 0.1 to 1 µM (≈ 0.0458 to 0.458 µg/mL) | < 20 mL/min/kg
Cc1ncc(-c2cc3c(=O)n([C@@H](C)CO)cnc3c(-c3cccnc3)n2)s1 [Compound 89] | ≥ 1 µM | ≥ 1 µM | < 20 mL/min/kg
